Experiment in all cases: Kir family selectivity thallium flux assay
Common to all, as to format: cell-based

Test [1] deals with T1, Kir2.1 (Homo sapiens, UniProt P63252).
T1 construct: expressed in transfected cells
T1 sequence (P63252 1-427): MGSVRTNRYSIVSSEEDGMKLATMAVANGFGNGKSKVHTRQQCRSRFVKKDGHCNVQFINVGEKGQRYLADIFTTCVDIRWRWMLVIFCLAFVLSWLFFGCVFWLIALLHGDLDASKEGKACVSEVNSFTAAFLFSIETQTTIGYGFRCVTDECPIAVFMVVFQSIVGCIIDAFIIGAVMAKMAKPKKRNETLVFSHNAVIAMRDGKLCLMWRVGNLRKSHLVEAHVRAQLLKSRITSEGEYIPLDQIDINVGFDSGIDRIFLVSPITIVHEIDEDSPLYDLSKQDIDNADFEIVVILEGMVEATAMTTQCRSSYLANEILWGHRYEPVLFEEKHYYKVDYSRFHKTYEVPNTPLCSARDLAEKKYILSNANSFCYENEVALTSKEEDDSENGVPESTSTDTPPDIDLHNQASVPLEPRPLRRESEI
Here is the method:
(§1) Thallium flux assays were conducted using the established methods. Stably transfected T-REx-HEK-293 cells expressing Kir6.2/SUR1 or Kir6.1/SUR2B were cultured overnight in polyamine-coated plates (black-walled, clear-bottomed; BD, Bedford, MA) at a density of 20,000 cells in 20 µl per well of cell culture media. The expression of Kir6.2/SUR1 or Kir6.1/SUR2B channels was induced by treating cells with 1 µg/ml tetracycline overnight. The following day, cells were rinsed with an assay buffer (Hanks’ Balanced Salt Solution supplied with 20 mM HEPES), loaded with the thallium-sensor dye Brilliant Thallos-AM AM (Ion Bioscience, San Marcos, TX) for 1 h, and then washed again with assay buffer to remove unincorporated dye. The cell plate was subsequently placed in a Panoptic Kinetic Imaging Plate Reader (Wavefront Bioscience, Franklin, TN) and imaged at a frequency of 1 Hz using 482/35 nm (excitation) and 536/40 nm (emission) filter sets. Kir6.1/SUR2B channels were activated with 10 µM pinacidil, whereas Kir6.1/SUR1 was activated with 30 µM VU0071063 [34]. To activate KATP channels independent of activators with ATP-depletion method, cells were treated with a cocktail of metabolic inhibitors (2.5 mM sodium cyanide and 20 mM 2-deoxy glucose) for 25 min before imagine. Control and test compounds diluted freshly from DMSO stocks into assay buffer were added to wells for four minutes before adding 0.5 mM chloride-free thallium stimulus buffer (Ion Bioscience) to initiate thallium flux through the expressed KATP channels. Thallium flux was recorded from all 384-wells for 2 min before terminating the experiment. […] Selectivity assays against other Kir channels were performed as described previously.
(§2) To begin elucidating the binding site location of VU0212387, VU0543336, VU0605768, and VU0544086, we evaluated the activity of the inhibitors against KATP channels composed of different Kir and SUR subunit combinations expressed in HEK293 cells. Specifically, the compounds were tested against Kir6.1/SUR1, Kir6.2/SUR1, Kir6.1/SUR2A, Kir6.2/SUR2A, Kir6.1/SUR2B, and Kir6.2/SUR2B at a dose of 3 µM. […] We expanded the selectivity analysis to include 10 other members of the Kir channel family.

In test [2] the target is T2, Kir3.1/3.4 (Homo sapiens, UniProt P48544+P48549).
T2 construct: expressed in transfected cells
T2 sequence (P48549 1-501): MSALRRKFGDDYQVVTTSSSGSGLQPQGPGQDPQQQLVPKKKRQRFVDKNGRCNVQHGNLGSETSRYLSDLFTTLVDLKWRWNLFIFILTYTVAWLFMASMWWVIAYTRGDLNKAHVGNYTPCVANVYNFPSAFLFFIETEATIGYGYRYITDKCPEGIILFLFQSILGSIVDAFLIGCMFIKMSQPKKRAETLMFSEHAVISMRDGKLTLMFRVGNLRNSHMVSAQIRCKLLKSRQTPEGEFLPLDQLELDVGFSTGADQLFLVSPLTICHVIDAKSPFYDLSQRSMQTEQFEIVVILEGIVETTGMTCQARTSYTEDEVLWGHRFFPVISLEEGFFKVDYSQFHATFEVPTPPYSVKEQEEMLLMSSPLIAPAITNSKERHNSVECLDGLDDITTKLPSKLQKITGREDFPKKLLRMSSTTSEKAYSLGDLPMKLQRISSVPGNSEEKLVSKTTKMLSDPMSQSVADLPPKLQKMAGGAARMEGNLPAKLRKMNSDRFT
T2 sequence (P48544 1-419): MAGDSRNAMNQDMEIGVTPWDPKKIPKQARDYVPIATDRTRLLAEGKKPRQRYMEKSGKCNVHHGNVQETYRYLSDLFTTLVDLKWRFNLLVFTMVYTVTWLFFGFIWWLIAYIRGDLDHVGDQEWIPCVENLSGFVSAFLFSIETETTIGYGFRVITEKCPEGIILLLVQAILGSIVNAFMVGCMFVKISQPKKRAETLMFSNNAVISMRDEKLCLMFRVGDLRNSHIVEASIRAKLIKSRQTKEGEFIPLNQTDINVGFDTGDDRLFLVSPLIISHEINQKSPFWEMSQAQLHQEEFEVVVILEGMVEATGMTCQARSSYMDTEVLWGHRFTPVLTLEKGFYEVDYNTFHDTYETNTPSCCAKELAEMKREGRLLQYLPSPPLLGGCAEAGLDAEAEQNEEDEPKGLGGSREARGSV
The conditions noted are these: for IC50: thallium flux. Here is the method: as §1, §2

Test [3] concerns the target T3, Kir4.2 (Homo sapiens, UniProt Q99712).
T3 construct: expressed in transfected cells
T3 sequence (Q99712 1-375): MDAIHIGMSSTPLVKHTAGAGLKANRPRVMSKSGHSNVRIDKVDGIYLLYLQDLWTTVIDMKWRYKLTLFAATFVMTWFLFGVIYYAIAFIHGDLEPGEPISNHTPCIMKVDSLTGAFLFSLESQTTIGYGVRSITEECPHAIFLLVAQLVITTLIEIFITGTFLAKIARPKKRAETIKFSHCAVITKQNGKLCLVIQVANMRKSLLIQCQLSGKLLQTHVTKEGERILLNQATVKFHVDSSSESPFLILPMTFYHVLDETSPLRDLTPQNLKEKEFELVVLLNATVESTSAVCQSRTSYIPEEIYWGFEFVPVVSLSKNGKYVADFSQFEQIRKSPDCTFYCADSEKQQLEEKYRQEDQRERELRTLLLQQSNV
The note with it: for inhibition at 30 µM: observed at 30 µM, read-out: Percent maximal inhibition of Kir4.2; for IC50: thallium flux. Here is the method: as §1, §2

The structures appear in SMILES notation. Where “and” joins values, the source holds several entries; their conditions need not be identical. Equal entries are not always repeated.

Broadly, the IC50 is the concentration needed to halve the response being measured. Regarding `c1ccc2[nH]c(CSc3ncnc4c3oc3ccccc34)nc2c1` [VU0212387, 4-(((1 H-benzo[d]imidazol-2-yl)methyl)thio)benzofuro[3,2-d]pyrimidine], the IC50 is over 30 µM in test [1]; over 30 µM in test [2]; 17 µM and 17.1 µM in test [3]. Also, the inhibition at 30 µM in test [3] came out at 56%.

For `O=C(NCC(O)(c1ccccc1)C(F)(F)F)c1ccc(OC(F)(F)F)cc1` (stereo not drawn) [VU0543336, N-(3,3,3-trifluoro-2-hydroxy-2-phenylpropyl)-4-(trifluoromethoxy)benzamide], the IC50 in test [1] is over 30 µM; in test [2], over 30 µM; in test [3], 12 µM and 11.8 µM. The inhibition at 30 µM in test [3] was found to be 110%.

On to `O=C(NCc1cc(-c2ccncc2)n(C2CCCC2)n1)Nc1cccs1` [VU0544086, 1-((1-cyclopentyl-5-(pyridin-4-yl)-1 H-pyrazol-3-yl)methyl)-3-(thiophen-2-yl)urea], for which the IC50 was over 30 µM in test [1], 16.2 µM in test [2] and over 30 µM in test [3]. For the same molecule, the inhibition at 30 µM in test [2] (observed at 30 µM, read-out: Percent maximal inhibition of Kir3.1/3.4) amounted to 92%.

Take `O=C1c2oc3ccccc3c(=O)c2C(c2cccc(Br)c2)N1CCO` (stereo not drawn) [VU0605768, 1-(3-bromophenyl)-2-(2-hydroxyethyl)-1,2-dihydrochromeno[2,3-c]pyrrole-3,9-dione]: the concentration for half-maximal inhibition (IC50) in test [1], in test [2] and in test [3] was over 30 µM each time.

The values above are taken from PMC11418212, “Characterization of four structurally diverse inhibitors of SUR2-containing KATP channels” (Channels, 2024).
